These results are taken from patent EP0082498A2, “Beta-lactam compounds and process for the preparation thereof” (SAGAMI CHEMICAL RESEARCH CENTER, priority 1981, dated 1983).

Holding throughout (test): Antibacterial activity, minimum inhibition concentration (MIC)
Holding throughout (type): cell-based

Test [1] deals with Escherichia coli NIHJ-JC-2. The settings on record: NIHJJC2, Table 3. The protocol: (§1) Antibacterial activities of the compounds according to this invention, which had been prepared in the preceding Examples, were measured according to the method prescribed by The Committee of Amendment of "The method for measurement of the minimum inhibition concentration", The Chemotherapy Association, Japan (See Chemotherapy, Vol. 29, No. 1, pp. 76 ~ 79 (1981)).
(§2) The test results are shown in terms of the minimum inhibition concentration (MIC) (unit: µg/mℓ) in the following Tables 1 to 4.

Test [2] deals with Proteus mirabillis IFO 3849. The settings on record: Table 3. On the procedure: as §1, §2
The subject of test [3] is Salmonella typhimurium IID-971. Particulars: Salmonella enterica, Table 3; Salmonella typhimurium IID-971; read-out: minimum inhibition concentration (MIC). On the procedure:
as §1, §2

Test [4] deals with Staphylococcus aureus FDA 209 PJC-1. The settings on record: FDA209, Table 3. On the procedure:
as §1, §2

For test [5], the system named is Klebsiella pneumoniae PCI-602. Particulars: PCI602, Table 3. On the procedure:
as §1, §2

SMILES strings stand for the structures.

On to `CC(=O)OCC1=C(C(=O)O)N2C(=O)C(NC(=O)C(=CCl)c3csc(N)n3)C2SC1` (single isomer, unassigned) [Example 28, sodium 7-[2-chloromethylene-2-(2-aminothiazol-4-yl)-acetamido]-3-acetoxymethyl-3-cephem-4-carboxylate], for which the MIC in test [1] was found to be 0.1 µg/mL; in test [2], 0.2 µg/mL; in test [3], 12.5 µg/mL; in test [4] it was 12.5 µg/mL; in test [5], 0.05 µg/mL.
